Measured values published in patent US8163793B2, “Proline derivatives” (Hoffman-La Roche Inc., priority 2009, dated 2012).

How the values were obtained:
[1] = target: Cat L (UniProt P07711); experiment: Cathepsin enzyme inhibition assay (fluorogenic peptide substrate Z-Val-Val-Arg-AMC), Cathepsin L; assay type: biochemical, human and mouse; conditions: enzyme 1 nM, substrate 20 μM, pH 6.5; read-out: CatL IC50
Summary of the method: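 Fluorogenic cleavage of Z-Val-Val-Arg-AMC (20 μM) by 1 nM Cat L was monitored at ex 360/em 465 nm for 20 min, the linear phase. The buffer was 100 mM potassium phosphate pH 6.5 with 5 mM EDTA and DTT. IC50 values were derived by standard methods, in μM.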

[2] = target: Cathepsin S (UniProt P25774); experiment: Cathepsin enzyme inhibition assay (fluorogenic peptide substrate Z-Val-Val-Arg-AMC), Cathepsin S; assay type: biochemical, human and mouse; conditions: enzyme 1 nM, substrate 20 μM, pH 6.5; read-out: CatS IC50
Summary of the method: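 Compounds were combined with 1 nM human or mouse enzyme, and substrate then started the reaction. The buffer was potassium phosphate (100 mM, pH 6.5) containing EDTA-Na 5 mM, Triton X-100 0.001% and […] 5 mM.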

SMILES	IC50 [1]	IC50 [2]
Cc1cc(-n2nc(C)cc2N2C[C@H](S(=O)(=O)c3ccccc3C(F)(F)F)C[C@H]2C(=O)NC2(C#N)CC2)cc(C)n1 [Example 351]	≥ 25000 nM	19.5 nM
Cc1cc(N2C[C@H](S(=O)(=O)c3ccccc3C(F)(F)F)C[C@H]2C(=O)NC2(C#N)CC2)n(-c2ccnc3ccccc23)n1 [Example 352, (2S,4R)-1-(5-Methyl-2-quinolin-4-yl-2H-pyrazol-3-yl)-4-(2-trifluoromethyl-benzenesulfonyl)-pyrrolidine-2-carboxylic acid (1-cyano-cyclopropyl)-amide]	7230 nM	0.25 nM
Cc1cc(N2C[C@H](S(=O)(=O)c3ccccc3Cl)C[C@H]2C(=O)NC2(C#N)CC2)n(C2CCC2)n1 [Example 353, (2S,4R)-4-(2-Chloro-benzenesulfonyl)-1-(2-cyclobutyl-5-methyl-2H-pyrazol-3-yl)-pyrrolidine-2-carboxylic acid (1-cyano-cyclopropyl)-amide]	13500 nM	0.99 nM
N#CC1(NC(=O)C2CC(S(=O)(=O)c3ccccc3C(F)(F)F)CN2c2cccc(C(F)(F)F)c2)CC1 (centres unmarked) [Example 354, 4-(2-Trifluoromethyl-benzenesulfonyl)-1-(3-trifluoromethyl-phenyl)-pyrrolidine-2-carboxylic Acid (1-cyano-cyclopropyl)-amide]	≥ 25000 nM	0.175 nM
CC(C)(C)c1ccccc1N1CC(S(=O)(=O)c2ccccc2C(F)(F)F)CC1C(=O)NC1(C#N)CC1 (centres unmarked) [Example 355, 1-(2-tert-Butyl-phenyl)-4-(2-trifluoromethyl-benzenesulfonyl)-pyrrolidine-2-carboxylic acid (1-cyano-cyclopropyl)-amide]	≥ 25000 nM	2450 nM
CC(=O)Nc1cccc(-n2nc(C)cc2N2C[C@H](S(=O)(=O)c3ccccc3C(F)(F)F)C[C@H]2C(=O)NC2(C#N)CC2)c1 [Example 356, (2S,4R)-1-[2-(3-Acetylamino-phenyl)-5-methyl-2H-pyrazol-3-yl]-4-(2-trifluoromethyl-benzenesulfonyl)-pyrrolidine-2-carboxylic acid (1-cyano-cyclopropyl)-amide]	31800 nM	0.06 nM
CC(=O)Nc1cccc(-n2nc(C)cc2N2C[C@H](S(=O)(=O)c3ccccc3C(F)(F)F)C[C@@H]2C(=O)NC2(C#N)CC2)c1 [Example 357, (2R,4R)-1-[2-(3-Acetylamino-phenyl)-5-methyl-2H-pyrazol-3-yl]-4-(2-trifluoromethyl-benzenesulfonyl)-pyrrolidine-2-carboxylic acid (1-cyano-cyclopropyl)-amide]	≥ 25000 nM	17.5 nM
N#Cc1cccc(N2CC(S(=O)(=O)c3ccccc3C(F)(F)F)CC2C(=O)NC2(C#N)CC2)c1 (centres unmarked) [Example 358, 1-(3-Cyano-phenyl)-4-(2-trifluoromethyl-benzenesulfonyl)-pyrrolidine-2-carboxylic acid (1-cyano-cyclopropyl)-amide]	≥ 25000 nM	0.5 nM
Cc1cc(N2C[C@H](S(=O)(=O)c3ccccc3Cl)C[C@H]2C(=O)NC2(C#N)CC2)n(CCc2ccccc2)n1 [Example 359, (2S,4R)-4-(2-Chloro-benzenesulfonyl)-1-(5-methyl-2-phenethyl-2H-pyrazol-3-yl)-pyrrolidine-2-carboxylic acid (1-cyano-cyclopropyl)-amide]	1050 nM	0.67 nM
N#CC1(NC(=O)[C@@H]2C[C@@H](S(=O)(=O)c3ccccc3C(F)(F)F)CN2C(=O)C2(c3ccc(Cl)cc3)CCC2)CC1 [Example 360, (2S,4R)-1-[1-(4-Chloro-phenyl)-cyclobutanecarbonyl]-4-(2-trifluoromethyl-benzenesulfonyl)-pyrrolidine-2-carboxylic acid (1-cyano-cyclopropyl)-amide]	1180 nM	0.185 nM
N#CC1(NC(=O)[C@@H]2C[C@@H](S(=O)(=O)c3ccccc3C(F)(F)F)CN2C(=O)C2(c3ccc(Cl)nc3)CC2)CC1 [Example 361, (2S,4R)-1-[1-(6-Chloro-pyridin-3-yl)-cyclopropanecarbonyl]-4-(2-trifluoromethyl-benzenesulfonyl)-pyrrolidine-2-carboxylic acid (1-cyano-cyclopropyl)-amide]	995 nM	0.02 nM
N#CC1(NC(=O)C2CC(S(=O)(=O)c3ccccc3C(F)(F)F)CN2C2CCOCC2)CC1 (centres unmarked) [Example 362, 1-(Tetrahydro-pyran-4-yl)-4-(2-trifluoromethyl-benzenesulfonyl)-pyrrolidine-2-carboxylic acid (1-cyano-cyclopropyl)-amide]	≥ 25000 nM	380 nM
N#CC1(NC(=O)[C@@H]2C[C@@H](S(=O)(=O)c3ccccc3C(F)(F)F)CN2c2cc(C3CC3)nn2-c2ccc(C(F)(F)F)cc2)CC1 [Example 363, (2S,4R)-1-[5-Cyclopropyl-2-(4-trifluoromethyl-phenyl)-2H-pyrazol-3-yl]-4-(2-trifluoromethyl-benzenesulfonyl)-pyrrolidine-2-carboxylic acid (1-cyano-cyclopropyl)-amide]	10800 nM	1.5 nM

Other lines, results leading:

IC50 [1]	IC50 [2]	SMILES
≥ 25000 nM	295 nM	CC(C)(C)OC(=O)N1CCC(N2CC(S(=O)(=O)c3ccccc3C(F)(F)F)CC2C(=O)NC2(C#N)CC2)CC1 (centres unmarked) [Example 364, 4-[2-(1-Cyano-cyclopropylcarbamoyl)-4-(2-trifluoromethyl-benzenesulfonyl)-pyrrolidin-1-yl]-piperidine-1-carboxylic acid tert-butyl ester]
≥ 25000 nM	240 nM	N#CC1(NC(=O)[C@@H]2C[C@@H](S(=O)(=O)c3ccc(OCC(F)(F)F)cc3Cl)CN2CC2(c3ccc(Cl)cc3)CC2)CC1 [Example 365, (2S,4R)-1-[1-(4-Chloro-phenyl)-cyclopropylmethyl]-4-[2-chloro-4-(2,2,2-trifluoro-ethoxy)-benzenesulfonyl]-pyrrolidine-2-carboxylic acid (1-cyano-cyclopropyl)-amide]
≥ 25000 nM	0.327 nM	N#CC1(NC(=O)[C@@H]2C[C@@H](S(=O)(=O)c3ccc(OCC(F)(F)F)cc3C(F)(F)F)CN2c2nnc(C(F)(F)F)s2)CC1 [Example 366, (2S,4R)-4-[4-(2,2,2-Trifluoro-ethoxy)-2-trifluoromethyl-benzenesulfonyl]-1-(5-trifluoromethyl-[1,3,4]thiadiazol-2-yl)-pyrrolidine-2-carboxylic acid (1-cyano-cyclopropyl)-amide]
≥ 25000 nM	1.57 nM	N#CC1(NC(=O)C2CC(S(=O)(=O)c3ccccc3C(F)(F)F)CN2c2cccc(OC(F)(F)F)c2)CC1 (centres unmarked) [Example 367, 1-(3-Trifluoromethoxy-phenyl)-4-(2-trifluoromethyl-benzenesulfonyl)-pyrrolidine-2-carboxylic acid (1-cyano-cyclopropyl)-amide]
267 nM	0.21 nM	N#CC1(NC(=O)[C@@H]2C[C@@H](S(=O)(=O)c3ccc(F)cc3Cl)CN2C(=O)C2(c3ccc(Cl)nc3)CC2)CC1 [Example 368, (2S,4R)-4-(2-Chloro-4-fluoro-benzenesulfonyl)-1-[1-(6-chloro-pyridin-3-yl)-cyclopropanecarbonyl]-pyrrolidine-2-carboxylic acid (1-cyano-cyclopropyl)-amide]
26.3 nM	0.07 nM	CN1CCN(c2ccc(S(=O)(=O)[C@@H]3C[C@@H](C(=O)NC4(C#N)CC4)N(C(=O)C4(c5ccc(Cl)nc5)CC4)C3)c(Cl)c2)CC1 [Example 369, (2S,4R)-4-[2-Chloro-4-(4-methyl-piperazin-1-yl)-benzenesulfonyl]-1-[1-(6-chloro-pyridin-3-yl)-cyclopropanecarbonyl]-pyrrolidine-2-carboxylic acid (1-cyano-cyclopropyl)-amide; Compound with Formic Acid]
21.7 nM	0.07 nM	CC(C)N1CCN(c2ccc(S(=O)(=O)[C@@H]3C[C@@H](C(=O)NC4(C#N)CC4)N(C(=O)C4(c5ccc(Cl)nc5)CC4)C3)c(Cl)c2)CC1 [Example 370, (2S,4R)-4-[2-Chloro-4-(4-isopropyl-piperazin-1-yl)-benzenesulfonyl]-1-[1-(6-chloro-pyridin-3-yl)-cyclopropanecarbonyl]-pyrrolidine-2-carboxylic acid (1-cyano-cyclopropyl)-amide; Compound with Formic Acid]
26.3 nM	0.08 nM	CC(C)(C)N1CCN(c2ccc(S(=O)(=O)[C@@H]3C[C@@H](C(=O)NC4(C#N)CC4)N(C(=O)C4(c5ccc(Cl)nc5)CC4)C3)c(Cl)c2)CC1 [Example 371, (2S,4R)-4-[4-(4-tert-Butyl-piperazin-1-yl)-2-chloro-benzenesulfonyl]-1-[1-(6-chloro-pyridin-3-yl)-cyclopropanecarbonyl]-pyrrolidine-2-carboxylic acid (1-cyano-cyclopropyl)-amide; Compound with Formic Acid]
44.3 nM	0.08 nM	COCCN1CCN(c2ccc(S(=O)(=O)[C@@H]3C[C@@H](C(=O)NC4(C#N)CC4)N(C(=O)C4(c5ccc(Cl)nc5)CC4)C3)c(Cl)c2)CC1 [Example 372, (2S,4R)-4-{2-Chloro-4-[4-(2-methoxy-ethyl)-piperazin-1-yl]-benzenesulfonyl}-1-[1-(6-chloro-pyridin-3-yl)-cyclopropanecarbonyl]-pyrrolidine-2-carboxylic acid (1-cyano-cyclopropyl)-amide; Compound with Formic Acid]
